Data as given in PMC7873226, “Molecular mechanism and structural basis of small-molecule modulation of the gating of acid-sensing ion channel 1” (Communications Biology, 2021).
Values joined by “and” are separate entries in the source; they are usually repeats but may differ in a detail not shown here. Identical values can stand only once.

Assays:
Type in all cases: cell-based
ASIC2a = target: T1, ASIC2a (Rattus norvegicus, UniProt Q62962); experiment: Activity at ASIC2a; conditions: inactive at ASIC2a
T1 sequence (Q62962 1-512): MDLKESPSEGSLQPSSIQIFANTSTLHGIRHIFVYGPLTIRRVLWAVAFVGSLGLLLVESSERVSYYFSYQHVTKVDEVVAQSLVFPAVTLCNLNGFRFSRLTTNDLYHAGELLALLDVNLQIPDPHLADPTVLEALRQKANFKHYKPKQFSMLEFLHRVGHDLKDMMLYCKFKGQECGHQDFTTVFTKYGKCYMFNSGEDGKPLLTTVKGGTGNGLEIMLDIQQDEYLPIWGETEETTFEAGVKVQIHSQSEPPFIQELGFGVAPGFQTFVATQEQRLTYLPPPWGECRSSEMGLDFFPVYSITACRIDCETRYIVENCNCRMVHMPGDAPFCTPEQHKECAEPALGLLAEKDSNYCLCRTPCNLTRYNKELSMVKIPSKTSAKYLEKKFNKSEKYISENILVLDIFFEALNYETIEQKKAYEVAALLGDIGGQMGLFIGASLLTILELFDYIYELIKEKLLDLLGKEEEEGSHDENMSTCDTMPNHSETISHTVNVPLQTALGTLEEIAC

rat ASIC1a [1] = target: T2, rat ASIC1a (Rattus norvegicus, UniProt P55926); experiment: pH dependence of channel activation (whole-cell patch clamp); conditions: holding pH 8.2
T2 construct: expressed in transfected cells
T2 sequence (P55926 1-526): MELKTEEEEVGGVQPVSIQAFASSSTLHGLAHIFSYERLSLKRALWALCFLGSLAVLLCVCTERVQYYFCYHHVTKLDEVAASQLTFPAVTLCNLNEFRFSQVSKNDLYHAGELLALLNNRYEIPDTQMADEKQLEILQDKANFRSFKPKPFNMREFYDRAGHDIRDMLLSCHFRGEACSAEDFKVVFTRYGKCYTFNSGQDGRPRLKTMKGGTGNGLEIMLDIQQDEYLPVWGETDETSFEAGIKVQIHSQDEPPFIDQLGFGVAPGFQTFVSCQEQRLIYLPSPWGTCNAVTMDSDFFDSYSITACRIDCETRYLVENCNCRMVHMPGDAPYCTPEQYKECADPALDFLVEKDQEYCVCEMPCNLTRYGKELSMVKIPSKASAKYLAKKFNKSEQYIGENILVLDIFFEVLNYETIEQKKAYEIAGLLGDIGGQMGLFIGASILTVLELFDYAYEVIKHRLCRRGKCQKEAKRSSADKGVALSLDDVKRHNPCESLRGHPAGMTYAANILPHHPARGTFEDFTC
Experimental: (§1) Chinese Hamster Ovary (CHO) cells stably expressing rat ASIC1a were cultured in Ham’s F12, supplemented with 10% FBS, 1% penicillin–streptomycin and 500 µg/mL G418 and incubated at 37 °C with 5% CO2. Transient transfections of rASIC1a and cASIC1 wild-type or mutant channels in CHO cells were performed with Lipofectamine 3000 (Thermo Fisher Scientific) according to the manufacturer’s recommendations. The green fluorescent protein (GFP) cDNA (at 1/10 the amount of channel cDNA) was co-transfected with channel cDNA to aid the identification of transfected cells under the microscope in patch clamp experiments. All cDNAs were sequence verified.
(§2) Cells were freshly dissociated with CellStripper (Corning) and dispersed in a chamber on the stage of an inverted microscope. Upon formation of the whole-cell conformation, the cell was lifted from the bottom of the chamber and placed at the tip of a tubing perfusing an extracellular solution containing (in mM): 149 NaCl, 2 CaCl2, 4 KCl, 1 MgCl2, 5 glucose, 10 HEPES, pH 7.4, 310 mOsm/L. Extracellular solutions at more basic or acidic pHs were made by titrating the above pH 7.4 solution with NaOH or HCl (5 mM MES was added to solutions at pH 6.0 and lower). Pipette electrodes were filled with an intracellular solution containing (in mM): 135 KCl, 4 MgATP, 0.3 Na2GTP, 10 EGTA, and 20 HEPES, pH 7.2, 290 mOsm/L.
(§3) All recordings were performed at room temperature using an Axopatch 200B amplifier and pClamp 11 software (Molecular Devices). Currents were measured by whole-cell patch clamp, digitized at 10 kHz and lowpass filtered at 2 kHz. Series resistance was 75% compensated. Responses were elicited by rapid perfusion of acidic solutions using the SF-77B Fast-Step Perfusion device (Warner Instruments) for 40 ms once every 30 s (unless indicated otherwise) and recorded till steady state was reached. The holding potential was 0 mV unless indicated otherwise.
(§4) Baseline values (i.e., current amplitudes at the conditioning pH) were subtracted to obtain responses evoked by the test pH. Responses were normalized for each cell before averaging (see figure legends for more detail on normalization for each type of experiment). Concentration–response data were fitted to a logistic function of the form: R = (A1–A2)/(1 + (C/C0)^h)+A2, where R is the normalized response, C is either pH or compound concentration, C0 is the pH/concentration at which half-maximal response occurs (pH50 or IC50), h is the Hill coefficient, and A1 and A2 are constants. Kinetic parameters were obtained by fitting the data with either a single or double exponential function. Fitted data are shown as solid, dashed, or dotted curves.

rat ASIC1a [2] = target: T2, rat ASIC1a; experiment: pH dependence of steady-state desensitization (whole-cell patch clamp)
Experimental: as §1, §2, §3, §4

rat ASIC1a [3] = target: T2, rat ASIC1a; experiment: Kinetics of closed-state (pH 7.1-induced) desensitization and recovery; conditions: 100 nM
Experimental: as §1, §2, §3, §4

COc1ccc(Oc2ccc(-c3nc4cc(C(=N)N)ccc4[nH]3)cc2)cc1OC [JNJ-799760]
IC50 (ASIC2a): > 50 µM

Cc1cc(N2CC(Oc3cc(F)c4c(N)n[nH]c4c3)C2)c(F)cn1 [JNJ-67869386]
max %response of channel activation (rat ASIC1a [1]; 10 nM): 95.3 ± 1.6% | pH50 of channel activation (rat ASIC1a [1]; 10 nM): 6.02 ± 0.03 | max %response of channel activation (rat ASIC1a [1]; 30 nM): 88.1 ± 1.0% | pH50 of channel activation (rat ASIC1a [1]; 30 nM): 5.87 ± 0.02 | max %response of channel activation (rat ASIC1a [1]; 100 nM): 82.6 ± 0.3% | pH50 of channel activation (rat ASIC1a [1]; 100 nM): 5.73 ± 0.00 | max %response of channel activation (rat ASIC1a [1]; 300 nM): 84.1 ± 0.5% | pH50 of channel activation (rat ASIC1a [1]; 300 nM): 5.70 ± 0.01 | max %response of channel activation (rat ASIC1a [1]; 1000 nM): 87.4 ± 0.5% | pH50 of channel activation (rat ASIC1a [1]; 1000 nM): 5.68 ± 0.01 | max %response of channel activation (rat ASIC1a [1]; 3000 nM): 82.9 ± 0.5% | pH50 of channel activation (rat ASIC1a [1]; 3000 nM): 5.70 ± 0.01 | pH50 of steady-state desensitization (rat ASIC1a [2]; 0.1 µM): 7.30 ± 0.03 | pH50 of steady-state desensitization (rat ASIC1a [2]; 1 µM): 7.27 ± 0.01 | pH50 of steady-state desensitization (rat ASIC1a [2]; 10 µM): 7.26 ± 0.01 | steady-state desensitization, current % of conditioning pH 8.2, mean (rat ASIC1a [2]; conditioning pH 6.8, 100 nM): 0.13% | steady-state desensitization, current % of conditioning pH 8.2, mean (rat ASIC1a [2]; conditioning pH 6.8, 1 uM): 0.0205% | steady-state desensitization, current % of conditioning pH 8.2, mean (rat ASIC1a [2]; conditioning pH 6.8, 10 uM): -0.0952% | steady-state desensitization, current % of conditioning pH 8.2, mean (rat ASIC1a [2]; conditioning pH 7.1, 100 nM): 1.6% | steady-state desensitization, current % of conditioning pH 8.2, mean (rat ASIC1a [2]; conditioning pH 7.1, 1 uM): 9.0% | steady-state desensitization, current % of conditioning pH 8.2, mean (rat ASIC1a [2]; conditioning pH 7.1, 10 uM): 10.8% | steady-state desensitization, current % of conditioning pH 8.2, mean (rat ASIC1a [2]; conditioning pH 7.4, 100 nM): 88.8% | steady-state desensitization, current % of conditioning pH 8.2, mean (rat ASIC1a [2]; conditioning pH 7.4, 1 uM): 84.6% | steady-state desensitization, current % of conditioning pH 8.2, mean (rat ASIC1a [2]; conditioning pH 7.4, 10 uM): 85.5% | steady-state desensitization, current % of conditioning pH 8.2, mean (rat ASIC1a [2]; conditioning pH 7.8, 100 nM): 98.6% | steady-state desensitization, current % of conditioning pH 8.2, mean (rat ASIC1a [2]; conditioning pH 7.8, 1 uM): 95.5% | steady-state desensitization, current % of conditioning pH 8.2, mean (rat ASIC1a [2]; conditioning pH 7.8, 10 uM): 95.9% | steady-state desensitization, current % of conditioning pH 8.2, mean (rat ASIC1a [2]; conditioning pH 8.2, 100 nM): 100% | steady-state desensitization, current % of conditioning pH 8.2, mean (rat ASIC1a [2]; conditioning pH 8.2, 1 uM): 100% | steady-state desensitization, current % of conditioning pH 8.2, mean (rat ASIC1a [2]; conditioning pH 8.2, 10 uM): 100% | current remaining during pH 7.1-induced desensitization, normalized to pre-pH 7.1 pH 6.0 peak, mean (rat ASIC1a [3]; 0.8 s in pH 7.1 (source data Fig. 3c)): 75.8 | current remaining during pH 7.1-induced desensitization, normalized to pre-pH 7.1 pH 6.0 peak, mean (rat ASIC1a [3]; 1.6 s in pH 7.1): 70.1 | current remaining during pH 7.1-induced desensitization, normalized to pre-pH 7.1 pH 6.0 peak, mean (rat ASIC1a [3]; 3.2 s in pH 7.1): 61.0 | current remaining during pH 7.1-induced desensitization, normalized to pre-pH 7.1 pH 6.0 peak, mean (rat ASIC1a [3]; 6.4 s in pH 7.1): 50.5 | current remaining during pH 7.1-induced desensitization, normalized to pre-pH 7.1 pH 6.0 peak, mean (rat ASIC1a [3]; 12.8 s in pH 7.1): 36.9 | current remaining during pH 7.1-induced desensitization, normalized to pre-pH 7.1 pH 6.0 peak, mean (rat ASIC1a [3]; 25.6 s in pH 7.1): 20.0 | current remaining during pH 7.1-induced desensitization, normalized to pre-pH 7.1 pH 6.0 peak, mean (rat ASIC1a [3]; 51.2 s in pH 7.1): 8.7 | current remaining during pH 7.1-induced desensitization, normalized to pre-pH 7.1 pH 6.0 peak, mean (rat ASIC1a [3]; 102.4 s in pH 7.1): 4.9 | current remaining during pH 7.1-induced desensitization, normalized to pre-pH 7.1 pH 6.0 peak, mean (rat ASIC1a [3]; 204.8 s in pH 7.1): 3.1 | time constant of development of pH 7.1-induced desensitization (rat ASIC1a [3]; single exponential, pH 6.0 test pulses): 15.1 s and 15.1 ± 1.3 s | IC50 (ASIC2a): > 50 µM
